One assay deals with T1, human S1P3 receptor (Homo sapiens, UniProt Q99500).
T1 construct: expressed in transfected cells
In words: FLIPR Ca+2 assay: ability to activate or block activation of the human S1P3 receptor in T24 cells. It is filed as cell-based. Here is the method:
Compounds were assessed for their ability to activate or block activation of the human S1P3 receptor in T24 cells stably expressing the human S1P3 receptor. Ten thousand cells/well were plated into 384-well poly-D-lysine coated plates one day prior to use. The growth media for the S1P3 receptor expressing cell line was McCoy's 5A medium supplemented with 10% charcoal-treated fetal bovine serum (FBS), 1% antibiotic-antimycotic and 400 μg/ml geneticin. On the day of the experiment, the cells were washed twice with Hank's Balanced Salt Solution supplemented with 20 mM HEPES (HBSS/Hepes buffer). The cells were then dye loaded with 2 uM Fluo-4 diluted in the HBSS/Hepes buffer with 1.25 mM Probenecid and incubated at 37° C. for 40 minutes. Extracellular dye was removed by washing the cell plates four times prior to placing the plates in the FLIPR (Fluorometric Imaging Plate Reader, Molecular Devices). Ligands were diluted in HBSS/Hepes buffer and prepared in 384-well microplates. The positive control, Sphingosine-1-Phosphate (SIP), was diluted in HBSS/Hepes buffer with 4 mg/ml fatty acid free bovine serum albumin. The FLIPR transferred 12.5 μl from the ligand microplate to the cell plate and took fluorescent measurements for 75 seconds, taking readings every second, and then for 2.5 minutes, taking readings every 10 seconds. Drugs were tested over the concentration range of 0.61 nM to 10,000 nM. Data for Ca^+2 responses were obtained in arbitrary fluorescence units and not translated into Ca^+2 concentrations. IC50 values were determined through a […] analysis using the Levenburg Marquardt algorithm.

A further assay relates to perfused porcine eyes. Particulars: by altering paracellular permeability, IOVS 45, 2263, 2004; cited from earlier work.
Where [1] appears, read: T24 cells stably expressing human S1P3, antagonist activity, tested 0.61 nM to 10,000 nM, read-out: S1P3 IC50.
Setting [2] is: T-24, T24 cells stably expressing human S1P3, antagonist activity, value in parentheses, read-out: S1P3 (% eff.).

The structures appear in SMILES notation. pIC50: −log10 of the molar value. Where two headings read alike, the source gives them in different places.

T1 sequence (Q99500 whole entry): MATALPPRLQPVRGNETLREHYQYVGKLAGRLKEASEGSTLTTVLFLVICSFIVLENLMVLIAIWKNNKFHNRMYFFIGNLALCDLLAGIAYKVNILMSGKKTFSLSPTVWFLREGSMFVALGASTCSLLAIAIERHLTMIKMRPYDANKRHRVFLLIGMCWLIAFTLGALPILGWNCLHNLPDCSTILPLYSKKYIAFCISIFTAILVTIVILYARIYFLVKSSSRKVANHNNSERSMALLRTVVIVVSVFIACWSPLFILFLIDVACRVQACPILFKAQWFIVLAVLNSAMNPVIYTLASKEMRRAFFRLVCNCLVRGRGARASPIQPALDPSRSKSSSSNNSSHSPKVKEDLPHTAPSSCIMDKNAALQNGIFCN

As for `Cc1c(C(=O)NCc2ccccc2)c2cc(O)ccc2n1Cc1cccs1` [Compound 15, 5-Hydroxy-2-methyl-1-thiophen-2-ylmethyl-1H-indole-3-carboxylic Acid, Benzylamide], the negative-log IC50 (pIC50) (usually the IC50 on a negative log10 scale, so that one unit is a factor of ten) against human S1P3 receptor was 5.80. At human S1P3 receptor (T-24, read-out: S1P3 (% eff.)), the Emax was 48%.

Consider `Cc1c(C(=O)NCc2cc(F)cc(F)c2)c2cc(O)ccc2n1Cc1cccs1` [Compound 11, 5-Hydroxy-2-methyl-1-thiophen-2-ylmethyl-1H-indole-3-carboxylic Acid, 3,5-Difluorobenzylamide], for which the pIC50 at human S1P3 receptor was 5.74. For the same molecule, the Emax on human S1P3 receptor (T-24, read-out: S1P3 (% eff.)) was determined as 67%.

Consider `Cc1c(C(=O)NCc2ccc(F)c(F)c2)c2cc(O)ccc2n1-c1ccccn1` [Compound 30, 5-Hydroxy-2-methyl-1-pyridin-2-yl-1H-indole-3-carboxylic Acid 3,4-Difluoro-benzylamide], for which, on human S1P3 receptor (setting [1]), the pIC50 is 5.82. The Emax at human S1P3 receptor (setting [2]) is 23%.

On to `Cc1c(C(=O)NCc2ccc(F)c(F)c2)c2cc(O)ccc2n1-c1ccccc1` [Compound 29, 5-Hydroxy-2-methyl-1-phenyl-1H-indole-3-carboxylic Acid 3,4-Difluoro-benzylamide], for which the negative logarithm of the IC50 (pIC50) at human S1P3 receptor (setting [1]) was 5.01. For the same molecule, the Emax at human S1P3 receptor (setting [2]) was found to be 76%.

As to `COc1ccccc1CNC(=O)c1c(C)n(Cc2cccs2)c2ccc(O)cc12` [Compound 23, 5-Hydroxy-2-methyl-1-thiophen-2-ylmethyl-1H-indole-3-carboxylic Acid, 2-methoxybenzylamide], at human S1P3 receptor, the pIC50 was 5.62. On human S1P3 receptor (T-24, read-out: S1P3 (% eff.)), the Emax worked out at 23%.

Turning to `Cc1c(C(=O)NCc2ccc(F)c(F)c2)c2cc(O)ccc2n1Cc1ccccc1` [Compound 13, 1-Benzyl-5-hydroxy-2-methyl-1H-indole-3-carboxylic Acid, 3,4-Difluoro-benzylamide], the negative-log IC50 (pIC50) at human S1P3 receptor was 5.82. For the same molecule, the Emax at human S1P3 receptor (T-24, read-out: S1P3 (% eff.)) was determined as 84%.

In turn, `CC(C)c1c(C(=O)NCc2cc(F)cc(F)c2)c2cc(O)ccc2n1Cc1ccccc1` [Compound 33, 1-Benzyl-5-hydroxy-2-isopropyl-1H-indole-3-carboxylic Acid, 3,5-difluorobenzylamide] gave a negative-log IC50 (pIC50) on human S1P3 receptor of 6.96. Moreover, the Emax at human S1P3 receptor (T-24, read-out: S1P3 (% eff.)) was determined as 99%.

Consider `Cc1c(C(=O)NCc2ccc(F)c(F)c2)c2cc(O)ccc2n1-c1cccs1` [Compound 31, 5-Hydroxy-2-methyl-1-thiophen-2-yl-1H-indole-3-carboxylic Acid 3,4-Difluorobenzylamide], for which the negative-log IC50 (pIC50) on human S1P3 receptor (setting [1]) is 5.60. Further, the Emax on human S1P3 receptor (setting [2]) was 81%.

Turning to `COc1cccc(CNC(=O)c2c(C)n(Cc3cccs3)c3ccc(O)cc23)c1` [Compound 17, 5-Hydroxy-2-methyl-1-thiophen-2-ylmethyl-1H-indole-3-carboxylic Acid, 3-Methoxybenzylamide], on human S1P3 receptor, the negative-log IC50 (pIC50) is 6.04. Besides, the Emax on human S1P3 receptor (T-24, read-out: S1P3 (% eff.)) was 33%.

Regarding `CC(C)c1c(C(=O)NCc2ccc(F)c(F)c2)c2cc(O)ccc2n1Cc1ccccc1` [Compound 28, 1-Benzyl-5-hydroxy-2-isopropyl-1H-indole-3-carboxylic Acid, 3,4-Difluorobenzamide], the pIC50 against human S1P3 receptor is 7.26. Moreover, on human S1P3 receptor (T-24, read-out: S1P3 (% eff.)), the Emax amounted to 98%.

For the molecule `Cc1c(C(=O)NCc2ccc(F)cc2)c2cc(O)ccc2n1Cc1cccs1` [Compound 19, 5-Hydroxy-2-methyl-1-thiophen-2-ylmethyl-1H-indole-3-carboxylic Acid, 4-Fluorobenzylamide], on human S1P3 receptor, the negative-log IC50 (pIC50) is 5.57. At human S1P3 receptor (T-24, read-out: S1P3 (% eff.)), the Emax amounted to 72%.

On human S1P3 receptor, `CCCCn1c(C)c(C(=O)NCc2cc(F)cc(F)c2)c2cc(O)ccc21` [Compound 6, 1-Butyl-5-hydroxy-2-methyl-1H-indole-3-carboxylic Acid, 3,5-Difluoro-benzylamide] gave a negative logarithm of the IC50 (pIC50) of 5.60. For the same molecule, the Emax at human S1P3 receptor (T-24, read-out: S1P3 (% eff.)) is 55%.

As for `Cc1c(C(=O)NCc2cccc(F)c2)c2cc(O)ccc2n1Cc1cccs1` [Compound 14, 5-Hydroxy-2-methyl-1-thiophen-2-ylmethyl-1H-indole-3-carboxylic Acid, 3-Fluorobenzylamide], at human S1P3 receptor, the negative-log IC50 (pIC50) is 5.49. Moreover, the Emax on human S1P3 receptor (T-24, read-out: S1P3 (% eff.)) stood at 85%.

`Cc1c(C(=O)NCc2cc(F)cc(F)c2)c2cc(O)ccc2n1Cc1ccco1` [Compound 12, 1-Furan-2-ylmethyl-5-hydroxy-2-methyl-1H-indole-3-carboxylic Acid 3,5-Difluorobenzylamide]: the pIC50 against human S1P3 receptor is 6.02. Besides, the Emax at human S1P3 receptor (T-24, read-out: S1P3 (% eff.)) was 77%.

For `CCc1c(C(=O)NCc2cccc(OC)c2)c2cc(O)ccc2n1Cc1ccccc1` [Compound 26, 1-Benzyl-2-ethyl-5-hydroxy-1H-indole-3-carboxylic Acid, 3-Methoxy-benzylamide], the pIC50 against human S1P3 receptor is 5.72. For the same molecule, the Emax on human S1P3 receptor (T-24, read-out: S1P3 (% eff.)) stood at 97%.

Turning to `Cc1c(C(=O)NCc2ccc(F)c(F)c2)c2cc(O)ccc2n1Cc1ccco1` [Compound 9, 1-Furan-2-ylmethyl-5-hydroxy-2-methyl-1H-indole-3-carboxylic Acid, 3,4-Difluorobenzylamide], the pIC50 against human S1P3 receptor is 5.54. Moreover, on human S1P3 receptor (T-24, read-out: S1P3 (% eff.)), the Emax was 97%.

In the case of `Cc1c(C(=O)NCc2ccc(Cl)cc2)c2cc(O)ccc2n1Cc1cccs1` [Compound 22, 5-Hydroxy-2-methyl-1-thiophen-2-ylmethyl-1H-indole-3-carboxylic Acid, 4-Chlorobenzylamide], the pIC50 against human S1P3 receptor is 5.60. For the same molecule, the Emax at human S1P3 receptor (T-24, read-out: S1P3 (% eff.)) was found to be 83%.

On to `COc1cccc(CNC(=O)c2c(C(C)C)n(Cc3ccccc3)c3ccc(O)cc23)c1` [Compound 34, 1-Benzyl-5-hydroxy-2-isopropyl-1H-indole-3-carboxylic Acid, 3-methoxybenzylamide], for which, on human S1P3 receptor, the pIC50 was 6.39. Further, the Emax on human S1P3 receptor (T-24, read-out: S1P3 (% eff.)) came out at 98%.

Consider `Cc1c(C(=O)NCc2cccc(Cl)c2)c2cc(O)ccc2n1Cc1cccs1` [Compound 21, 5-Hydroxy-2-methyl-1-thiophen-2-ylmethyl-1H-indole-3-carboxylic Acid, 3-Chlorobenzylamide], for which the pIC50 against human S1P3 receptor is 5.92. Further, on human S1P3 receptor (T-24, read-out: S1P3 (% eff.)), the Emax came out at 38%.

Turning to `Cc1ccc(CNC(=O)c2c(C)n(Cc3cccs3)c3ccc(O)cc23)cc1` [Compound 20, 5-Hydroxy-2-methyl-1-thiophen-2-ylmethyl-1H-indole-3-carboxylic Acid, 4-Methylbenzylamide], the pIC50 against human S1P3 receptor is 5.60. At human S1P3 receptor (T-24, read-out: S1P3 (% eff.)), the Emax was found to be 71%.

Take `O=C(NCc1cc(F)cc(F)c1)c1c(-c2ccccc2)n(Cc2ccccc2)c2ccc(O)cc12` [Compound 48, 1-Benzyl-5-hydroxy-2-phenyl-1H-indole-3-carboxylic Acid, 3,5-Difluoro-benzylamide]: the pIC50 against human S1P3 receptor is 6.06. Besides, the Emax at human S1P3 receptor (T-24, read-out: S1P3 (% eff.)) worked out at 98%.

With `CCCCn1c(C)c(C(=O)NCc2cccc(OC)c2)c2cc(O)ccc21` [Compound 18, 1-Butyl-5-hydroxy-2-methyl-1H-indole-3-carboxylic Acid, 3-Methoxy-benzylamide], at human S1P3 receptor, the pIC50 is 5.29. Also, on human S1P3 receptor (T-24, read-out: S1P3 (% eff.)), the Emax is 42%.

`CCc1c(C(=O)NCc2cc(F)cc(F)c2)c2cc(O)ccc2n1Cc1ccccc1` [Compound 32, 1-Benzyl-2-ethyl-5-hydroxy-1H-indole-3-carboxylic Acid 3,5-Difluoro-benzylamide] showed a pIC50 at human S1P3 receptor of 6.55. For the same molecule, at human S1P3 receptor (T-24, read-out: S1P3 (% eff.)), the Emax is 97%.

Consider `Cc1c(C(=O)NCc2ccc(F)c(F)c2)c2cc(O)ccc2n1Cc1cccs1` [Compound 4, 5-Hydroxy-2-methyl-1-thiophen-2-ylmethyl-1H-indole-3-carboxylic Acid, 3,4-Difluorobenzylamide], for which the negative logarithm of the IC50 (pIC50) at human S1P3 receptor is 5.77. For the same molecule, at human S1P3 receptor (T-24, read-out: S1P3 (% eff.)), the Emax was determined as 66%.

For `Cc1c(C(=O)NCc2cc(F)cc(F)c2)c2cc(O)ccc2n1Cc1ccccc1` [Compound 3, 1-Benzyl-5-hydroxy-2-methyl-1H-indole-3-carboxylic Acid, 3,5-Difluorobenzylamide], the pIC50 against human S1P3 receptor was 6.29. Besides, the Emax on human S1P3 receptor (T-24, read-out: S1P3 (% eff.)) was 53%.

For the molecule `CCCCCCCCCCCCC/C=C/[C@@H](O)[C@@H](N)COP(=O)(O)O` [Compound S1P, Sphingosine-1-Phosphate], in the assay with perfused porcine eyes, the “decrease of outflow facility” value is given as > 30%.

In the case of `CCc1c(C(=O)NCc2ccc(F)c(F)c2)c2cc(O)ccc2n1Cc1ccccc1` [Compound 25, 1-Benzyl-2-ethyl-5-hydroxy-1H-indole-3-carboxylic Acid, 3,4-Difluoro-benzylamide], at human S1P3 receptor, the pIC50 was 6.15. At human S1P3 receptor (T-24, read-out: S1P3 (% eff.)), the Emax stood at 98%.

The record behind these values is patent US7737173B2, “Indole-3-carboxylic acid amide, ester, thioamide and thiol ester compounds bearing aryl or heteroaryl groups having sphingosine-1-phosphate (S1P) receptor antagonist biological activity” (Allergan, Inc., priority 2006, dated 2010).
